Data on two molecules can be found in article PMC8869731, “KasQ an Epimerase Primes the Biosynthesis of Aminoglycoside Antibiotic Kasugamycin and KasF/H Acetyltransferases Inactivate Its Activity” (Biomedicines, 2022).

One data set deals with KasF. The data set can be described thus: HPLC acetylation assay with KasF and AcCoA. It is filed as biochemical, Streptomyces kasugaensis. Conditions: 1 mM substrate, 0.5 mM AcCoA, 37 °C, 12 h.
The subject of data set [1] is E. coli BL21 (DE3) cells with/without the kasH or kasF gene. The data set can be described thus: Disc diffusion assay (resistance assay). It is filed as cell-based. As to conditions: disc ~5 μL of 7.6 mg/mL KSM. The procedure: KSM susceptibility and production were confirmed by disc diffusion assay. An E. coli culture was grown at 37 °C overnight and spread on an LB agar plate (pH 7.0). About 5 µL of extracted samples from Streptomyces lividans TK64 (from days 2–5) were loaded onto the paper disc. The disc was placed onto the surface of an LB agar plate and incubated at 37 °C overnight to visualize the zone of inhibition (ZOI).
For the KSM resistant assay, BL21 cells with/without the kasH or kasF gene were individually expressed and seeded on LB agar plates (pH 7.0). About 5 µL of different aminoglycoside antibiotics (amikacin, gentamicin, sisomicin, streptothricin-F, or tobramycin) were loaded onto each paper disc and placed on the surface of the LB plates. The plates were incubated 37 °C overnight to visualize the appearance of the zone of inhibition (ZOI). Note: this is a standard protocol for evaluating the effectiveness of common antibiotics, including aminoglycosides; there is no apparent impact concerning the structural integrity or biological deterioration of the selected aminoglycosides at pH 7.0 during the examining course.
(In general: Agar diffusion results depend on both activity and mobility in agar.)

Data set [2] addresses T1, KasH (Streptomyces kasugaensis, UniProt A0A0K1H2T0). The data set is described as follows: ITC of KasH versus ligands.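 Also: isothermal titration calorimetry at 25 °C, 0.1 mM KasH in the cell titrated with 1 mM ligand over 18 injections, data fit with a one-site binding model.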
Method: ITC analyses were carried out at 25 °C using an ITC200 microcalorimeter (MicroCal Inc., Northampton, MA, USA). […] The titration experiment contains 18 injections (2 μL for a duration of 4 s) and each injection was separated by 120 s. The distilled water was filled in the reference cell throughout all titrations. The cell stirring speed was 1000 rpm. The collected raw data were processed in Origin 7.0 (provided by MicroCal) by a non-linear least square method to a single-site binding model.
Data set [3] addresses T1, KasH. The data set is described as follows: HPLC acetylation assay with KasH and AcCoA. It is filed as biochemical. Conditions: 1 mM substrate, 0.5 mM AcCoA, 37 °C, 12 h.
Data set [4] deals with the molecule itself. The data set can be described thus: not stated; oligomeric state of the purified protein in solution (Figure S3: protein overexpression and purification); the method is not named in the text shown.

For orientation: Kd means the concentration at which binding is half-saturated. Low readings indicate higher affinity, high ones lower affinity. On to `C[C@H]1O[C@H](O[C@H]2[C@H](O)[C@@H](O)[C@@H](O)[C@H](O)[C@@H]2O)[C@@H](N)C[C@@H]1NC(=N)C(=O)O` [KSM, Kasugamycin], for which the “acetylation by KasF” value in the data set with KasF was “partially acetylated”. In addition, the “growth of E. coli in the presence of KSM” value in data set [1] (E. coli BL21 (DE3) carrying the kasF gene) is recorded as “moderate growth”. Moreover, the “growth of E. coli in the presence of KSM” value in data set [1] (E. coli BL21 (DE3) carrying the kasH gene) is given as “not affected”. Besides, in data set [1] (E. coli BL21 (DE3) with empty pET28a+ (no acetyltransferase gene)), the “zone of inhibition (ZOI)” value is recorded as “clear zone of inhibition”. The molecule also displayed a n at KasH [2] (ITC binding stoichiometry, KasH, 50 mM MOPS pH 7.5, 100 mM NaCl) of 1.0 ± 0.1. Moreover, on KasH [2] (ITC, KasH), the “∆G” value was -5.804 ± 0.4705 kcal/mol, the “∆H” value is -2.316 ± 0.4705 kcal/mol and the “∆S” value came to 11.7 cal mol-1 K-1. This molecule had a Kd at KasH [2] (ITC, KasH, 50 mM MOPS pH 7.5, 100 mM NaCl) of 56.1 µM. For the same molecule, the “binding affinity versus KasH relative to AcCoA” value at KasH [2] (ITC, higher than AcCoA) was determined as 2.9 fold. The “binding affinity versus KasH relative to CoA” value at KasH [2] (ITC, higher than CoA) is given as 1.7 fold. Moreover, the “acetylation by KasH” value on KasH [3] is “completely acetylated”.

B1: KasH (enzyme, Streptomyces kasugaensis, UniProt A0A0K1H2T0 1-130, looked up)
chain: MTITYEWRGGFDNAALNALHADGFGPPIAQTDWRTRLERHSLGWVCAWEDGLIGFVNVVWDGGAHAFILDTVVARHCRSRGVGAALVAKAADEARAANCEWLHVDFEEHLRAFYFDACGFKETTAGLIAL
notes: KasH, acetyltransferase of the kasugamycin biosynthetic gene cluster, Streptomyces kasugaensis; gene amplified and cloned into pET28a+; also called acetyltransferase KasH; source: E. coli BL21, purified (Ni-agarose, gel filtration)
As a reminder, the stoichiometry N is a count of units in the complex or per binding partner. Take B1: in data set [4], the “stoichiometry N” value stood at 2.
